Results reported in ChEMBL document CHEMBL1135963, “Synthesis and vasorelaxant activity of new coumarin and furocoumarin derivatives” (Bioorg Med Chem Lett, 2002).

Legend:
Rattus norvegicus [1] = species: Rattus norvegicus; experiment: Compound was tested for the vasorelaxation in rat aorta rings pre-contracted with KCl 60 mM; assay type: functional, organism-based
Rattus norvegicus [2] = species: Rattus norvegicus; experiment: Compound was tested for the vasorelaxation in rat aorta rings pre-contracted with noradrenaline (NA) 10 uM; assay type: functional, organism-based
Rattus norvegicus [3] = species: Rattus norvegicus; experiment: Antagonist PD'2 which is the negative logarithm of the molar concentration of antagonist required to cause 50% depression of the maximal response of the agonist was determined; assay type: functional
Rattus norvegicus [4] = species: Rattus norvegicus; experiment: Effect on concentration dependent contractions in rat aortic rings expressed as pD2 value; assay type: functional, Aorta

| Structure (SMILES) | IC50 (Rattus norvegicus [1]) | IC50 (Rattus norvegicus [2]) | PD'2 (Rattus norvegicus [3]) | pD2 (Rattus norvegicus [4]) |
| --- | --- | --- | --- | --- |
| NC[C@H](O)c1ccc(O)c(O)c1 [NOREPINEPHRINE] |  |  |  | 6.07 |
| COc1c(O)ccc2c(CO)cc(=O)oc12 | 1010 µM | 933 µM | 2.57 |  |
| CC(=O)COc1ccc2c(CO)cc(=O)oc2c1OCC(C)=O | > 1000 µM | > 1000 µM |  |  |
| COc1c2occ(C)c2cc2c(CO)cc(=O)oc12 | 42.6 µM | 42 µM |  |  |

Now from value to molecule, other results behind:

| IC50 (Rattus norvegicus [1]) | IC50 (Rattus norvegicus [2]) | Structure (SMILES) | PD'2 (Rattus norvegicus [3]) | pD2 (Rattus norvegicus [4]) |
| --- | --- | --- | --- | --- |
| 54 µM | 68.4 µM | Cc1coc2cc3oc(=O)cc(CO)c3cc12 | 4.73 |  |
| 316 µM | 309 µM | COc1c2occc2c(OC)c2c(=O)cc(C)oc12 [KHELLIN] | 4.46 |  |
| > 1000 µM | > 1000 µM | CCOC(=O)COc1ccc2c(C)c(CCN(CC)CC)c(=O)oc2c1 [CHROMONAR] |  |  |
| 93.3 µM | 52.6 µM | CC(=O)COc1c2occ(C)c2cc2c(CO)cc(=O)oc12 |  |  |
